Laboratory results reported in patent US6844294B2, “Synergistic herbicidal compositions comprising herbicides from the benzoylcyclohexanedione group for use in rice crops” (Aventis CropScience GmbH, priority 2001, dated 2005).

What was measured:
Assay type in all cases: in vivo
SAGPY Sagittaria pygmaea = test: Herbicidal action on SAGPY, visual scoring on a percentage scale vs untreated control
Description: (§1) Seeds or root segments of monocotyledonous and dicotyledonous harmful plants are placed in sandy loam in pots and covered with soil. In the case of spray application, the compositions formulated as concentrated aqueous solutions, wettable powders or emulsion concentrates, are then applied to the surface of the covering soil as aqueous solution, suspension or emulsion, respectively, at an application rate of 600 to 800 l of water per ha (converted) in a variety of dosages. Immediately to a few days after the application, the test containers are flooded with water up to a depth of 30 mm above the soil surface. In the case of submerged application, in contrast, the soil in the closed test container is already covered with paddy water up to a depth of 30 mm at the time of application. Here, the formulated active ingredients are added directly to the paddy water, for example in the form of granules. After the treatment, the pots are placed in a greenhouse and kept under good growth conditions for the weeds. […] When using suitable low dosages, the values observed in the experiments show an effect of the combinations which exceed the expected values calculated using Colby's formula.
(§2) The herbicidal efficacy of the active ingredients or active ingredient mixtures was scored visually by comparing the treated variants with untreated control variants. The damage and development of all aerial plant parts was recorded. […]
Seeds or root segments of monocotyledonous and dicotyledonous weeds are placed in sandy loam in pots, covered with soil and grown in the greenhouse under good growth conditions (temperature, atmospheric humidity, water supply). […] After the experimental plants have remained in the greenhouse under optimal growth conditions for a further 3 to 4 weeks, the effect of the preparations is scored visually in comparison with untreated controls. […] When using suitable low dosages, the values observed in the experiments show an effect of the combinations which exceed the expected values calculated using Colby's formula. […]

SCPJU Scirpus juncoides = test: Herbicidal action on SCPJU, visual scoring on a percentage scale vs untreated control
Description: (§3) Seeds or root segments of monocotyledonous and dicotyledonous harmful plants are placed in sandy loam in pots and covered with soil. In the case of spray application, the compositions formulated as concentrated aqueous solutions, wettable powders or emulsion concentrates, are then applied to the surface of the covering soil as aqueous solution, suspension or emulsion, respectively, at an application rate of 600 to 800 l of water per ha (converted) in a variety of dosages. Immediately to a few days after the application, the test containers are flooded with water up to a depth of 30 mm above the soil surface. In the case of submerged application, in contrast, the soil in the closed test container is already covered with paddy water up to a depth of 30 mm at the time of application. Here, the formulated active ingredients are added directly to the paddy water, for example in the form of granules. After the treatment, the pots are placed in a greenhouse and kept under good growth conditions for the weeds. Visual scoring of the plant damage or the adverse effect on the emergence is carried out after the test plants have emerged after an experimental period of 3 to 4 weeks in comparison with untreated controls. […] Frequently, effects of the combinations according to the invention are observed which exceed the formal total of the effects when the herbicides are applied individually. When using suitable low dosages, the values observed in the experiments show an effect of the combinations which exceed the expected values calculated using Colby's formula.
(§4) The herbicidal efficacy of the active ingredients or active ingredient mixtures was scored visually by comparing the treated variants with untreated control variants. The damage and development of all aerial plant parts was recorded. Scoring was done on a percentage scale (100% action=all plants dead; 50% action=50% of the plants and green plant parts dead; 0% action=no discernible action=like untreated control plot).
(§5) Seeds or root segments of monocotyledonous and dicotyledonous weeds are placed in sandy loam in pots, covered with soil and grown in the greenhouse under good growth conditions (temperature, atmospheric humidity, water supply). Approximately three weeks after planting, the experimental plants are treated with the compositions according to the invention. In the case of spray application, the compositions according to the invention, which are formulated as wettable powders or emulsion concentrates, are sprayed onto the green plant parts in various dosages with an application rate of 600 to 800 l of water per ha (converted). Immediately to a few days after the application, the test containers are flooded with water up to a depth of 30 mm above the soil surface. In the case of submerged application, in contrast, the soil in the closed test container is already covered with paddy water up to a depth of 30 mm at the time of application. Here, the formulated active ingredients are added directly to the paddy water. After the experimental plants have remained in the greenhouse under optimal growth conditions for a further 3 to 4 weeks, the effect of the preparations is scored visually in comparison with untreated controls. The compositions according to the invention also have an outstanding herbicidal action against a broad spectrum of economically important grass weeds and broad-leaved weeds when applied post-emergence. Frequently, effects of the combinations according to the invention are observed which exceed the formal total of the effects when the herbicides are applied individually. When using suitable low dosages, the values observed in the experiments show an effect of the combinations which exceed the expected values calculated using Colby's formula.
Crop plants were grown in the open on plots under natural field conditions, seeds or root segments of typical harmful plants having been planted and the natural weed flora being exploited. […]

SEBEX Sesbania exaltata = test: Herbicidal action on SEBEX, visual scoring on a percentage scale vs untreated control
Description: as §3, §4
as §5, with “The compositions according to the invention also have an outstanding herbicidal action against a broad spectrum of economically important grass weeds and broad-leaved weeds when applied post-emergence. Frequently, effects of the combinations according to the invention are observed which exceed the formal total of the effects when the herbicides are applied individually.” left out, “formula. […]” for “formula.”

CYPSE = test: Herbicidal action on CYPSE, visual scoring on a percentage scale vs untreated control
MOOVA = test: Herbicidal action on MOOVA, visual scoring on a percentage scale vs untreated control
Description: as §1, with “granules.” for “granules. After the treatment, the pots are placed in a greenhouse and kept under good growth conditions for the weeds.”
as §2

CHEAL = test: Herbicidal action on CHEAL, visual scoring on a percentage scale vs untreated control
Description: as §1, with “granules.” for “granules. After the treatment, the pots are placed in a greenhouse and kept under good growth conditions for the weeds.”
as §2

PHBPU = test: Herbicidal action on PHBPU, visual scoring on a percentage scale vs untreated control
Description: as §3, §4
as §5, with “The compositions according to the invention also have an outstanding herbicidal action against a broad spectrum of economically important grass weeds and broad-leaved weeds when applied post-emergence. Frequently, effects of the combinations according to the invention are observed which exceed the formal total of the effects when the herbicides are applied individually.” left out, “formula. […]” for “formula.”

ECHOR = test: Herbicidal action on ECHOR, visual scoring on a percentage scale vs untreated control; conditions: Example B.XII, dosage 25 g ai/ha
Description: as §1, with “granules.” for “granules. After the treatment, the pots are placed in a greenhouse and kept under good growth conditions for the weeds.”
as §2

ECHCG = test: Herbicidal action on ECHCG, visual scoring on a percentage scale vs untreated control
Description: as §1, with “granules.” for “granules. After the treatment, the pots are placed in a greenhouse and kept under good growth conditions for the weeds.”
as §2

[1] = Example B.IX, dosage 187 g ai/ha
[2] = Example B.X, dosage 1.8 g ai/ha
[3] = Example B.XIII, dosage 22 g ai/ha
[4] = Example B.IV, dosage 20 g ai/ha
[5] = Example B.XV, dosage 4.3 g ai/ha

CCN(CC)C(=O)SCc1ccc(Cl)cc1 [Compound B1.2, thiobencarb]
found (herbicidal action) (SAGPY Sagittaria pygmaea; [1]): 0%
found (herbicidal action) (SCPJU Scirpus juncoides; [1]): 20%

COc1cc(OC)nc(NC(=O)NS(=O)(=O)Cc2ccccc2C(=O)O)n1 [Compound B2.1, bensulfuron]
found (herbicidal action) (SEBEX Sesbania exaltata; Example B.I, dosage 20 g ai/ha): 45%
found (herbicidal action) (CYPSE; Example B.I, dosage 10 g ai/ha): 68%

COc1cc(OC)nc(Oc2cccc(Oc3nc(OC)cc(OC)n3)c2C(=O)O)n1 [Compound B2.2, bispyribac-sodium]
found (herbicidal action) (MOOVA; [2]): 0%
found (herbicidal action) (SCPJU Scirpus juncoides; [2]): 0%

COC(=O)c1c(Cl)nn(C)c1S(=O)(=O)NC(=O)Nc1nc(OC)cc(OC)n1 [Compound B2.5, halosulfuron-methyl]
found (herbicidal action) (SAGPY Sagittaria pygmaea; Example B.XI, dosage 7.5 g ai/ha): 0%
found (herbicidal action) (SCPJU Scirpus juncoides; Example B.XI, dosage 15 g ai/ha): 0%

CCc1cnc(C2=NC(C)(C(C)C)C(=O)N2)c(C(=O)O)c1 (stereo not shown) [Compound B2.9, imazethapyr]
found (herbicidal action) (CHEAL; Example B.II, dosage 10 g ai/ha): 5%
found (herbicidal action) (PHBPU; Example B.II, dosage 5 g ai/ha): 5%

COc1cc(OC)n2nc(S(=O)(=O)Nc3c(Cl)ccc(C)c3Cl)nc2n1 [Compound B2.13, metosulam]
found (herbicidal action) (SEBEX Sesbania exaltata; B.III, dosage 2.5 g ai/ha): 30%
found (herbicidal action) (PHBPU; B.III, dosage 2.5 g ai/ha): 85%

CC1(C)CON(Cc2ccccc2Cl)C1=O [Compound B3.1, clomazone]
found (herbicidal action) (ECHOR): 30%
found (herbicidal action) (CYPSE; Example B.XII, dosage 50 g ai/ha): 0%

CCCCOC(=O)[C@@H](C)Oc1ccc(Oc2ccc(C#N)cc2F)cc1 [Compound B4.1, cyhalofop-butyl]
found (herbicidal action) (SCPJU Scirpus juncoides; [3]): 0%
found (herbicidal action) (CYPSE; [3]): 0%

CCOC(=O)C(C)Oc1ccc(Oc2nc3ccc(Cl)cc3o2)cc1 (stereo not shown) [Compound B4.2, fenoxaprop-ethyl]
found (herbicidal action) (SEBEX Sesbania exaltata; [4]): 0%
found (herbicidal action) (PHBPU; [4]): 0%

CN(C(=O)COc1nc2ccccc2s1)c1ccccc1 [Compound B5.1, mefenacet]
found (herbicidal action) (SAGPY Sagittaria pygmaea; Example B.XIV, dosage 63 g ai/ha): 0%
found (herbicidal action) (SCPJU Scirpus juncoides; Example B.XIV, dosage 125 g ai/ha): 0%

CC1=C(c2ccccc2)C(=O)N(C(C)(C)c2cc(Cl)cc(Cl)c2)CO1 [Compound B5.2, oxaziclomefone]
found (herbicidal action) (SCPJU Scirpus juncoides; [5]): 0%
found (herbicidal action) (CYPSE; [5]): 0%

CCC(CC)Nc1c([N+](=O)[O-])cc(C)c(C)c1[N+](=O)[O-] [Compound B7.1, pendimethalin]
found (herbicidal action) (ECHCG; Example B.V, dosage 200 g ai/ha): 78%
found (herbicidal action) (PHBPU; Example B.V, dosage 100 g ai/ha): 75%

CCC(=O)Nc1ccc(Cl)c(Cl)c1 [Compound B8.1, propanil]
found (herbicidal action) (MOOVA; Example B.XVI, dosage 187 g ai/ha): 0%
found (herbicidal action) (SCPJU Scirpus juncoides; Example B.XVI, dosage 375 g ai/ha): 0%

O=C(O)c1c(Cl)ccc2cc(Cl)cnc12 [Compound B9.1, quinclorac]
found (herbicidal action) (SEBEX Sesbania exaltata; Example B.VI, dosage 5 g ai/ha): 0%
found (herbicidal action) (PHBPU; Example B.VI, dosage 10 g ai/ha): 78%

CP(=O)(O)CCC(N)C(=O)O (stereo not shown) [Compound B10.1, glufosinate]
found (herbicidal action) (ECHCG; Example B.VII, dosage 50 g ai/ha): 0%
found (herbicidal action) (SEBEX Sesbania exaltata; Example B.VII, dosage 100 g ai/ha): 5%

O=C(O)CNCP(=O)(O)O [Compound B11.1, glyphosate]
found (herbicidal action) (CHEAL; Example B.VIII, dosage 100 g ai/ha): 0%
